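Cells were grown in 96-well plates and exposed to each compound for 48 hours at five concentrations; endpoints were interpolated linearly between bracketing concentrations, or set to the highest concentration if not reached. The concentration for 50% growth inhibition is given as GI50. Definition used: TGI = concentration required for complete inhibition of growth.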

One assay relates to A498 renal. Kind of assay: inhibition of tumour cell growth, NCI panel, 48 h.
Regarding `N#C[C@H](OC1OC(COC2OC(CO)C(O)C(O)C2O)C(O)C(O)C1O)c1ccccc1` (some centres undefined), the TGI was greater than 11.6 µM.

`CCN(CC)c1ccc2cc(C(=O)Nc3ccc4[nH]c(C(=O)N5C[C@@H](CCl)c6c5cc(OC(=O)Nc5ccccc5)c5[nH]cc(C)c65)cc4c3)oc2c1` showed a TGI of 0.000864 µM.

Consider `Cn1c(=O)c2[nH]c(CCNC(=O)c3ccccc3)nc2n(C)c1=O`, for which the TGI was greater than 100 µM.

In turn, `Cc1cc(S(=O)(=O)Nc2nc3ccccc3nc2-c2cccc([N+](=O)[O-])c2)c(S)cc1Cl` came in with a TGI of 29.1 µM.

`O=c1ssc(=Nc2ccccc2)n1-c1ccccc1` yielded a TGI greater than 100 µM.

Take `NCCSS(=O)(=O)CCN`: the TGI is greater than 100 µM.

For the compound `CC(=O)Oc1cc2c(cc1OC(C)=O)OCC(c1ccccc1)C2` (centres undefined), the TGI came to 12.2 µM.

`OCCNCCN1CCN(CCCN2c3ccccc3Sc3ccc(C(F)(F)F)cc32)CC1` registered a TGI greater than 100 µM.

`O=C(CCl)NNC1=Nc2ccc(Cl)cc2SC1` gave a TGI of 35.1 µM.

Regarding `CCCc1c(-c2ccccc2)[nH]c2ccccc2c1=O`, the TGI is 79 µM.

Turning to `CO/N=C(/C)c1ccc(NC(=O)CSc2nnc(-c3ccncc3)n2-c2ccccc2)cc1`, the GI50 is 2.15 µM and the TGI was found to be 8.08 µM.

For the compound `C[N+](C)(C)CCc1ccccc1`, the TGI is greater than 100 µM.

Compound `COc1c(Br)cc2c(c1OC)C(Br)CCC(Br)(Br)C2=O` (centres undefined) came in with a TGI of 12.3 µM.

In the case of `O=C1C=CC2(C=C1)O[C@H](Cc1ccccc1)[C@@H](Cc1ccccc1)O2`, the TGI was determined as 16.6 µM.

`CCCNC(=O)C(C)C1CCC2(C)C=CC(=O)C(C)=C2C1O` (centres undefined) registered a TGI greater than 100 µM.

The compound `O=C(Nc1nc2ccc([N+](=O)[O-])cc2s1)C(=O)C(C(=O)c1ccccc1F)C1OC(=O)c2ccccc21` (centres undefined) yielded a TGI greater than 100 µM.

The test system of a further assay is A549 NSCLC. Kind of assay: inhibition of tumour cell growth, NCI panel, 48 h.
Consider `N#C[C@H](OC1OC(COC2OC(CO)C(O)C(O)C2O)C(O)C(O)C1O)c1ccccc1` (some centres undefined), for which the TGI was greater than 250 µM.

Regarding `CCN(CC)c1ccc2cc(C(=O)Nc3ccc4[nH]c(C(=O)N5C[C@@H](CCl)c6c5cc(OC(=O)Nc5ccccc5)c5[nH]cc(C)c65)cc4c3)oc2c1`, the GI50 was 147 µM and the TGI is greater than 1000 µM.

For the compound `Cn1c(=O)c2[nH]c(CCNC(=O)c3ccccc3)nc2n(C)c1=O`, the TGI was greater than 100 µM.

`Cc1cc(S(=O)(=O)Nc2nc3ccccc3nc2-c2cccc([N+](=O)[O-])c2)c(S)cc1Cl` registered a TGI of 38 µM.

`O=c1ssc(=Nc2ccccc2)n1-c1ccccc1` had a TGI greater than 100 µM.

Regarding `NCCSS(=O)(=O)CCN`, the TGI was greater than 100 µM.

The compound `CC(=O)Oc1cc2c(cc1OC(C)=O)OCC(c1ccccc1)C2` (centres undefined) registered a TGI of 39.9 µM.

As to `OCCNCCN1CCN(CCCN2c3ccccc3Sc3ccc(C(F)(F)F)cc32)CC1`, the TGI turned out to be 48.6 µM.

Compound `O=C(O)c1cc2c(ncc3c(=O)n(-c4ccccc4)[nH]c32)s1` returned a TGI greater than 100 µM.

For the compound `O=C(CCl)NNC1=Nc2ccc(Cl)cc2SC1`, the TGI turned out to be 26.2 µM.

In the case of `Cc1ccc(C2OC(COCc3ccc(Cl)cc3)C(OCc3ccc(Cl)cc3)C2O)cc1` (centres undefined), the TGI was 30.1 µM.

Compound `C[N+](C)(C)CCc1ccccc1` yielded a TGI greater than 100 µM.

In the case of `COc1c(Br)cc2c(c1OC)C(Br)CCC(Br)(Br)C2=O` (centres undefined), the TGI is 16.2 µM.

Turning to `O=C1C=CC2(C=C1)O[C@H](Cc1ccccc1)[C@@H](Cc1ccccc1)O2`, the TGI came out at 18.7 µM.

Regarding `CCCNC(=O)C(C)C1CCC2(C)C=CC(=O)C(C)=C2C1O` (centres undefined), the TGI is greater than 100 µM.

Turning to `O=C(Nc1nc2ccc([N+](=O)[O-])cc2s1)C(=O)C(C(=O)c1ccccc1F)C1OC(=O)c2ccccc21` (centres undefined), the TGI is greater than 100 µM.

The compound `Nc1ccn(C2C=C(CO)C(O)C2O)c(=O)c1` (centres undefined) showed a TGI greater than 625 µM.

Turning to `COc1nc(=O)n(COC(CO)CN2C(=O)c3ccccc3C2=O)cc1Cc1cccc(OCc2ccccc2)c1` (centres undefined), the TGI was 75.8 µM.

The next assay deals with HCT-15 colon. As to the kind of experiment: inhibition of tumour cell growth, NCI panel, 48 h.
As to `N#C[C@H](OC1OC(COC2OC(CO)C(O)C(O)C2O)C(O)C(O)C1O)c1ccccc1` (some centres undefined), the TGI is greater than 250 µM.

Take `CCN(CC)c1ccc2cc(C(=O)Nc3ccc4[nH]c(C(=O)N5C[C@@H](CCl)c6c5cc(OC(=O)Nc5ccccc5)c5[nH]cc(C)c65)cc4c3)oc2c1`: the GI50 is 539 µM and the TGI was greater than 1000 µM.

As to `Cn1c(=O)c2[nH]c(CCNC(=O)c3ccccc3)nc2n(C)c1=O`, the TGI is greater than 100 µM.

Consider `Cc1cc(S(=O)(=O)Nc2nc3ccccc3nc2-c2cccc([N+](=O)[O-])c2)c(S)cc1Cl`, for which the TGI was greater than 100 µM.

In turn, `O=c1ssc(=Nc2ccccc2)n1-c1ccccc1` showed a TGI of 35 µM.

`NCCSS(=O)(=O)CCN` came in with a TGI greater than 100 µM.

`CC(=O)Oc1cc2c(cc1OC(C)=O)OCC(c1ccccc1)C2` (centres undefined) showed a TGI of 56.4 µM.

Consider `OCCNCCN1CCN(CCCN2c3ccccc3Sc3ccc(C(F)(F)F)cc32)CC1`, for which the TGI was found to be 37.3 µM.

In turn, `O=C(O)c1cc2c(ncc3c(=O)n(-c4ccccc4)[nH]c32)s1` had a TGI greater than 100 µM.

`O=C(CCl)NNC1=Nc2ccc(Cl)cc2SC1` displayed a TGI of 3.97 µM.

`CCCc1c(-c2ccccc2)[nH]c2ccccc2c1=O` gave a TGI greater than 100 µM.

For `Cc1ccc(C2OC(COCc3ccc(Cl)cc3)C(OCc3ccc(Cl)cc3)C2O)cc1` (centres undefined), the TGI is greater than 100 µM.

Regarding `CO/N=C(/C)c1ccc(NC(=O)CSc2nnc(-c3ccncc3)n2-c2ccccc2)cc1`, the GI50 is greater than 100 µM and the TGI is greater than 100 µM.

Compound `C[N+](C)(C)CCc1ccccc1` had a TGI greater than 100 µM.

In turn, `COc1c(Br)cc2c(c1OC)C(Br)CCC(Br)(Br)C2=O` (centres undefined) yielded a TGI of 1.63 µM.

With `O=C1C=CC2(C=C1)O[C@H](Cc1ccccc1)[C@@H](Cc1ccccc1)O2`, the TGI worked out at 0.866 µM.

Values taken from PubChem BioAssay (NCI).
